Measurements taken from patent publication US20180021275A1, “METHOD OF TREATING IDIOPATHIC PULMONARY FIBROSIS” (MediciNova, Inc., priority 2014, published 2018).

Assays:
Format in all cases: in vivo, C57BL/6 mice
[1] = tested on: BLM-induced pulmonary fibrosis in mice; assay: Bleomycin (BLM)-induced pulmonary fibrosis in mice, therapeutic regimen, overall conclusion; conditions: administered after detecting fibrosis (therapeutic regimen, from day 7 after BLM)
Method: As evidenced by Ashcroft score and lung hydroxyproline content, pulmonary fibrosis was established in all BLM-treated mice. […] In the present study, MN-001 was administered at day 7 after BLM administration. Since BLM induced fibrogenic reaction already at day 7, the treatment schedule in the present study is considered to be a “therapeutic regimen”. […] On day 0, twenty mice were intratracheally administered BLM (Nippon Kayaku, Japan) in 0.9% saline in a volume of 50 μL per animal using a Microsprayer® (Penn-Century, USA). MN-001 and vehicle were administered by oral route in a volume of 10 mL/kg. MN-001 was administered at doses of 30, 100, 300 mg/kg once daily.

[2] = tested on: BLM-induced pulmonary fibrosis model mice; assay: CT evaluation of lung density in BLM-induced pulmonary fibrosis model mice; conditions: for Lung density on day 0 / Lung density on day 7: CT, mean ± SD; for Lung density on day 0: day 0 (before BLM administration and before treatment); for Lung density on day 7: day 7 after BLM (start of treatment)
Method: On day 0, twenty mice were intratracheally administered BLM (Nippon Kayaku, Japan) in 0.9% saline in a volume of 50 μL per animal using a Microsprayer® (Penn-Century, USA). MN-001 and vehicle were administered by oral route in a volume of 10 mL/kg. MN-001 was administered at doses of 30, 100, 300 mg/kg once daily. […] The mice were mounted on a holder and placed in the X-ray CT system (LCT-200, Aloka, Japan) under pentobarbital sodium (Kyoritu Seiyaku, Japan) anesthesia. The images were converted into DICOM format and analyzed with Onis Viewer (DigitalCore, Japan). Two section slides (upper: forth dorsal vertebra, lower: seventh dorsal vertebra) were determined from each scan data set, and eight regions of interest (ROI) were defined in the following areas: the right upper anterior and posterior regions, the left upper anterior and posterior region. The means of the intensity of the eight ROIs were defined as an individual's level of lung density.

[3] = tested on: BLM-induced pulmonary fibrosis model mice; assay: as above; conditions: for Lung density on day 21: CT, mean ± SD
[4] = tested on: BLM-induced pulmonary fibrosis model mice; assay: Survival analysis in BLM-induced pulmonary fibrosis model mice
Method: (§1) On day 0, twenty mice were intratracheally administered BLM (Nippon Kayaku, Japan) in 0.9% saline in a volume of 50 μL per animal using a Microsprayer® (Penn-Century, USA).
(§2) MN-001 and vehicle were administered by oral route in a volume of 10 mL/kg.
(§3) MN-001 was administered at doses of 30, 100, 300 mg/kg once daily.
(§4) The viability, clinical signs and behavior were monitored every day. Body weight was recorded daily after the day of starting the BLM administration (day 0). Animals were sacrificed by exsanguination through the abdominal aorta under pentobarbital sodium anesthesia (Kyoritsu, Japan).

[5] = tested on: BLM-induced pulmonary fibrosis model mice; assay: Cellular analysis of BALF (total cell number) in BLM-induced pulmonary fibrosis model mice; conditions: for Total number of cells in BALF: sacrifice day 21, mean ± SD
Method: On day 0, twenty mice were intratracheally administered BLM (Nippon Kayaku, Japan) in 0.9% saline in a volume of 50 μL per animal using a Microsprayer® (Penn-Century, USA). MN-001 and vehicle were administered by oral route in a volume of 10 mL/kg. MN-001 was administered at doses of 30, 100, 300 mg/kg once daily. BALF samples were collected by flushing the lung via the trachea with sterile PBS three times (0.8 mL each). The first lavage was kept separate from the other two. BALF was centrifuged at 1,000×g for 3 minutes at 4° C. and the supernatant was collected and stored at −80° C. until use. The cell pellet from the first fraction and the remaining fractions of lavage fluid were pooled. Total cell number of BALF was counted with a hemocytometer.

[6] = tested on: BLM-induced pulmonary fibrosis model mice; assay: Histopathological analysis (Masson's trichrome staining, Ashcroft score) in BLM-induced pulmonary fibrosis model mice; conditions: for Ashcroft score: sacrifice day 21, mean ± SD
Method: On day 0, twenty mice were intratracheally administered BLM (Nippon Kayaku, Japan) in 0.9% saline in a volume of 50 μL per animal using a Microsprayer® (Penn-Century, USA). MN-001 and vehicle were administered by oral route in a volume of 10 mL/kg. MN-001 was administered at doses of 30, 100, 300 mg/kg once daily. Right lung tissues prefixed in 10% neutral buffered formalin were embedded in paraffin and sectioned at […] sections were stained with Masson's trichrome staining Kit (Sigma, USA) according to the manufacturer's instructions. The degree of pulmonary fibrosis was evaluated using the Ashcroft score (Ashcroft, T., et al., J Clin Pathol, 1988; 41:467-70) for the quantitative histological analysis.

[7] = Body weight changes in BLM-induced pulmonary fibrosis model mice; conditions: for Body weight changes (%) on the day of sacrifice: percentage of baseline (day 0), mean ± SD
Method: Seven-week-old female C57BL/6 mice (17-21 g) were obtained from Japan SLC (Japan). Animals were housed and fed with normal diet (CE-2; CLEA Japan) under conventional conditions. All animals used in this study were cared following appropriate guidelines.
as §1, §2, §3, §4
Body weight was expressed as percentage body weight change from baseline (day 0).

[8] = tested on: BLM-induced pulmonary fibrosis model mice; assay: Lung hydroxyproline content in BLM-induced pulmonary fibrosis model mice; conditions: for Lung hydroxyproline contents / Lung Hyp (lung hydroxyproline content): sacrifice day 21, mean ± SD
Method: On day 0, twenty mice were intratracheally administered BLM (Nippon Kayaku, Japan) in 0.9% saline in a volume of 50 μL per animal using a Microsprayer® (Penn-Century, USA). MN-001 and vehicle were administered by oral route in a volume of 10 mL/kg. MN-001 was administered at doses of 30, 100, 300 mg/kg once daily. To quantify lung hydroxyproline content, frozen left lung samples (15-25 mg) were processed by an alkaline-acid hydrolysis method as follows. Lung samples were acid-hydrolyzed with 400 μL of 6N HCl at 121° C. for 20 minutes, and neutralized with 400 μL of 4N NaOH containing 10 mg/mL activated carbon. AC buffer (2.2M acetic acid/0.48M citric acid, 400 μL) was added to the samples, followed by centrifugation to collect the supernatant. A standard curve of hydroxyproline was constructed with serial dilutions of trans-4-hydroxy-L-proline (Sigma-Aldrich, USA) starting at 16 μg/mL. The prepared samples and standards (each 400 μL) were mixed with 400 μL chloramine T solution (Wako Pure Chemical Industries Japan) and incubated for 25 minutes at room temperature. The samples were then mixed with Ehrlich's solution (400 μL) and heated at 65° C. for 20 minutes to develop the color. After samples were cooled on ice and centrifuged to remove precipitates, the optical density of each supernatant was measured at 560 nm. The concentrations of hydroxyproline were calculated from the hydroxyproline standard curve. Lung hydroxyproline levels were expressed as […].

[9] = MN-001 30 mg/kg oral once daily day 7 to 20, n = 8
[10] = MN-001 100 mg/kg oral once daily day 7 to 20, n = 10
[11] = MN-001 300 mg/kg oral once daily day 7 to 20, n = 10
[12] = MN-001 30 mg/kg oral once daily day 7 to 20
[13] = MN-001 100 mg/kg oral once daily day 7 to 20
[14] = MN-001 300 mg/kg oral once daily day 7 to 20
[15] = MN-001 30 mg/kg oral once daily day 7 to 20, n = 8, 30 mg/kg
[16] = MN-001 100 mg/kg oral once daily day 7 to 20, n = 10, 100 mg/kg
[17] = MN-001 300 mg/kg oral once daily day 7 to 20, n = 10, 300 mg/kg
[18] = MN-001 treatment, all doses, administered from day 7 after BLM

**Q.** With CCCc1c(SCCCOc2ccc(C(C)=O)c(OCCCC(=O)O)c2CCC)ccc(C(C)=O)c1O [MN-001] as the molecule, how does the Anti-fibrogenic effect [1] read?
**A.** The Anti-fibrogenic effect was “significant anti-fibrogenic effect”.

**Q.** What about the “Lung density on day 0” value ([2]; MN-001 30 mg/kg group, n = 8) of the same molecule?
**A.** The value was −445 ± 17.

**Q.** And the “Lung density on day 7” value ([2]; MN-001 30 mg/kg group, n = 8)?
**A.** Its value is −375 ± 77.

**Q.** And the “Lung density on day 0” value ([2]; MN-001 100 mg/kg group, n = 10)?
**A.** The value was −444 ± 18.

**Q.** What about the “Lung density on day 7” value ([2]; MN-001 100 mg/kg group, n = 10) of the same molecule?
**A.** Its value is −343 ± 84.

**Q.** And the “Lung density on day 0” value ([2]; MN-001 300 mg/kg group, n = 10)?
**A.** The value was −423 ± 19.

**Q.** What about the “Lung density on day 7” value ([2]; MN-001 300 mg/kg group, n = 10) of the same molecule?
**A.** Its value is −415 ± 83.

**Q.** And the “Lung density, visually observed in the graphs (FIGS. 1.1 to 1.3)” value ([2]; MN-001 treated groups vs Vehicle)?
**A.** The value was “downward trend”.

**Q.** And the “Lung density on day 21” value [3, 9]?
**A.** Its value is −186 ± 84.

**Q.** What about the “Lung density on day 21” value [3, 10] of the same molecule?
**A.** Its value is −200 ± 122.

**Q.** What about the “Lung density on day 21” value [3, 11] of the same molecule?
**A.** The value was −260 ± 107.

**Q.** What about the “Lung density on day 0, 7 and 21 compared to the Vehicle group” value ([3]; any of the MN-001 treated groups, statistical comparison) of the same molecule?
**A.** The value was “no significant differences”.

**Q.** And the “Mice died before reaching day 21” value ([4]; MN-001 30 mg/kg group, during the treatment period (Vehicle: two out of 10))?
**A.** The value was “Two out of 10”.

**Q.** What about the “Survival rate compared to the Vehicle group” value ([4]; MN-001 treated groups (30, 100, 300 mg/kg)) of the same molecule?
**A.** Its value is “no significant differences”.

**Q.** And the “Total number of cells in BALF” value [5, 12]?
**A.** Its value is 65.1±26.1 ×10^5 cells.

**Q.** What about the “Total number of cells in BALF” value [5, 13] of the same molecule?
**A.** Its value is 124.4±127.3 ×10^4 cells.

**Q.** And the “Total number of cells in BALF” value [5, 14]?
**A.** The value was 76.0±35.0 ×10^5 cells.

**Q.** And the “Total number of cells in BALF compared to the Vehicle group” value ([5]; any MN-001 treated groups)?
**A.** Its value is “no significant differences”.

**Q.** And the Ashcroft score [6, 15]?
**A.** The Ashcroft score was 2.0±0.7.

**Q.** And the “Ashcroft score compared to the Vehicle group” value ([6]; MN-001 30 mg/kg treatment)?
**A.** Its value is “tended to decrease”.

**Q.** And the Ashcroft score [6, 16]?
**A.** The Ashcroft score was 2.2±0.8.

**Q.** What about the “Ashcroft score compared to the Vehicle group” value ([6]; MN-001 100 mg/kg treatment) of the same molecule?
**A.** Its value is “tended to decrease”.

**Q.** And the “Ashcroft score compared to the Vehicle group” value ([6]; MN-001 300 mg/kg group)?
**A.** Its value is “significantly decreased”.

**Q.** And the Ashcroft score [6, 17]?
**A.** Its Ashcroft score is 1.8±0.6.

**Q.** And the “Ashcroft score compared to the Vehicle group at day 21 (summary)” value [6, 18]?
**A.** Its value is “significant reduction or a decreasing trend”.

**Q.** And the “Body weight changes (%) on the day of sacrifice” value (shortened to “Body weight changes (%)”) [7, 15]?
**A.** The value was 104.8±3.7%.

**Q.** And the “Body weight changes (%)” value [7, 16]?
**A.** The value was 100.9±10.6%.

**Q.** And the “Body weight changes (%)” value [7, 17]?
**A.** Its value is 104.2±4.1%.

**Q.** And the “Mean body weight loss on the day of sacrifice compared to the Vehicle group” value ([7]; MN-001 treated groups (30, 100, 300 mg/kg), Bonferroni multiple comparison test)?
**A.** Its value is “no significant differences”.

**Q.** And the “Lung hydroxyproline contents compared to the Vehicle group” value ([8]; MN-001 30 mg/kg group)?
**A.** The value was “significantly decreased”.

**Q.** What about the Lung hydroxyproline contents [8, 12] of the same molecule?
**A.** Its Lung hydroxyproline contents is 49.8±7.9 μg/left lung.

**Q.** What about the Lung Hyp (lung hydroxyproline content) [8, 9] of the same molecule?
**A.** Its Lung Hyp (lung hydroxyproline content) is 49.8 ± 7.9 µg/left lung.

**Q.** What about the “Lung hydroxyproline contents compared to the Vehicle group” value ([8]; MN-001 100 mg/kg group) of the same molecule?
**A.** Its value is “significantly decreased”.

**Q.** And the Lung hydroxyproline contents [8, 13]?
**A.** Its Lung hydroxyproline contents is 56.1±10.1 μg/left lung.

**Q.** And the Lung Hyp (lung hydroxyproline content) [8, 10]?
**A.** The Lung Hyp (lung hydroxyproline content) was 56.1 ± 10.1 µg/left lung.

**Q.** And the Lung hydroxyproline contents [8, 14]?
**A.** The Lung hydroxyproline contents was 56.4±12.7 μg/left lung.

**Q.** What about the Lung Hyp (lung hydroxyproline content) [8, 11] of the same molecule?
**A.** The Lung Hyp (lung hydroxyproline content) was 56.4 ± 12.7 µg/left lung.

**Q.** And the “Lung hydroxyproline content compared to the Vehicle group” value ([8]; MN-001 300 mg/kg treatment)?
**A.** Its value is “tended to decrease”.

**Q.** And the “Lung hydroxyproline content compared to the Vehicle group at day 21 (summary)” value [8, 18]?
**A.** The value was “significant reduction or a decreasing trend”.
